Measurements reported in patent US12685312B2, “Sulfonamide apyrase inhibitors” (Texas Crop Science, Inc., priority 2022, dated 2026).

Each molecule was assayed on apyrase (assay: Screen for apyrase inhibitors (Method 1, in vitro phosphate-release absorbance assay)). Settings: inhibitor conc at 1 mM stock, 1 hr room temperature, absorbance 630 nm; rounded average of two assay results.
Type: biochemical
Protocol: Apyrase inhibitors useful as enhancers of pesticidal activity are assessed using an in vitro assay. The method of Windsor, Bio Techniques 33:1024-1030 (November 2002) was used as follows Screen for Apyrase Inhibitors- 96 well plates were used for the assay: (Greiner bio-one: REF-655901-96 well, PS, F-bottom, Clear, Non-binding) Buffers: • Reaction Buffer: 60 mM Hepes; 3 mM MgCl2, 3 mM CaCl2 and 3 mM ATP (pH 6.5) • Development Buffer A: 2% aqueous ammonium molybdate • Development Buffer B: 11% ascorbic acid in 37.5% TCA in water • Stop buffer C: 2% trisodium citrate in 2% acetic acid solution in water • Add 100 μl of reaction buffer to each well. • Add 10 μl of DMSO (control) or inhibitor/compound or compounds such as […] or orthovanadate to each well. […] A blank cell indicates either <10% observed inhibition or a large difference between repetitions. In certain examples, the lack of observed inhibition is due to a lack of solubility of the compound under assay conditions, rather than a lack of apyrase inhibitory activity.

SMILES	% Inhibition of Apyrase
O=C(Nc1cccc(C(F)(F)F)c1)c1cccc(NS(=O)(=O)c2ccc(Cl)c(C(=O)O)c2)c1 [I-321, 2-chloro-5-(N-(3-((3-(trifluoromethyl)phenyl)carbamoyl)phenyl)sulfamoyl)benzoic acid]	57%
O=C(Nc1ccccc1NS(=O)(=O)c1cccs1)c1ccc(Cl)cc1F [I-837, 4-chloro-2-fluoro-N-(2-(thiophene-2-sulfonamido)phenyl)benzamide]	35%
COc1ccccc1NC(=O)c1ccc(NS(=O)(=O)c2ccc(C(F)(F)F)cc2)cc1 [I-934, N-(2-methoxyphenyl)-4-((4-(trifluoromethyl)phenyl)sulfonamido) benzamide]	53%
O=C(Nc1ccc2c(c1)OCCO2)c1ccc(C(=O)Nc2ccc3c(c2)OCCO3)cc1 [I-875, N1,N4-bis(2,3-dihydrobenzo[b][1,4]dioxin-6-yl)terephthalamide]	55%
COc1ccc(NS(=O)(=O)c2ccc(C(=O)Nc3ccc4c(c3)OCCO4)cc2)cc1 [I-887, N-(2,3-dihydrobenzo[b][1,4]dioxin-6-yl)-4-(N-(4-methoxyphenyl)sulfamoyl)benzamide]	43%
COc1ccc(OC)c(S(=O)(=O)Nc2cccc(C(=O)Nc3cccc(C(F)(F)F)c3)c2)c1 [I-323, 3-((2,5-dimethoxyphenyl)sulfonamido)-N-(3-(trifluoromethyl)phenyl)benzamide]	42%
COc1ccc([N+](=O)[O-])cc1NC(=O)c1ccc(C)c(S(=O)(=O)Nc2ccccc2)c1 [I-28, N-(2-methoxy-5-nitrophenyl)-4-methyl-3-(N-phenylsulfamoyl)benzamide]	23%
Cc1ccc(N(C)S(=O)(=O)c2cccc(C(=O)Nc3ccc(C)cc3C)c2)cc1 [I-591, N-(2,4-dimethylphenyl)-3-(N-methyl-N-(p-tolyl)sulfamoyl)benzamide]	41%
Cc1nc2cc(NC(=O)c3cccc(S(=O)(=O)N4CCc5ccccc54)c3)ccc2o1 [I-587, 3-(indolin-1-ylsulfonyl)-N-(2-methylbenzo[d]oxazol-5-yl)benzamide]	44%
O=C(Nc1cccc(S(=O)(=O)Nc2ccc(Cl)cc2)c1)c1cnccn1 [I-775, N-(3-(N-(4-chlorophenyl)sulfamoyl)phenyl)pyrazine-2-carboxamide]	3%
N#Cc1ccc(NC(=O)c2ccc(Cl)c(S(=O)(=O)N3CCc4ccccc43)c2)cc1 [I-557, 4-chloro-N-(4-cyanophenyl)-3-(indolin-1-ylsulfonyl)benzamide]	52%
O=C(Nc1ccc2c(c1)OCCCO2)c1ccc(Cl)c(S(=O)(=O)N2CCc3ccccc32)c1 [I-565, 4-chloro-N-(3,4-dihydro-2H-benzo[b][1,4]dioxepin-7-yl)-3-(indolin-1-ylsulfonyl)benzamide]	51%
O=C(Nc1[nH]ncc1-c1ccccc1)c1cccc(NS(=O)(=O)c2ccc(F)c(F)c2)c1 [I-657, 3-((3,4-difluorophenyl)sulfonamido)-N-(4-phenyl-1H-pyrazol-5-yl)benzamide]	34%
O=C(Nc1cccc(C(F)(F)F)c1)c1cccc(NS(=O)(=O)c2cccs2)c1 [I-642, 3-(thiophene-2-sulfonamido)-N-(3-(trifluoromethyl)phenyl)benzamide]	55%
O=C(Nc1ccc(F)cc1Cl)c1ccc(S(=O)(=O)Nc2ccc(SC(F)F)cc2)cc1 [I-380, N-(2-chloro-4-fluorophenyl)-4-(N-(4-((difluoromethyl)thio)phenyl)sulfamoyl) benzamide]	73%
N#Cc1cccc(NC(=O)c2ccc(NS(=O)(=O)c3ccc4c(c3)OCCO4)cc2)c1 [I-962, N-(3-cyanophenyl)-4-((2,3-dihydrobenzo[b][1,4]dioxine)-6-sulfonamido)benzamide]	11%
